Source: publication PMC4336141, “Repurposing Auranofin as a Lead Candidate for Treatment of Lymphatic Filariasis and Onchocerciasis” (PLoS Neglected Tropical Diseases, 2015)
Where “and” joins values, the source holds several entries; their conditions need not be identical. Identical values can stand only once. Entries after “also recorded” stand apart in the source; their conditions may differ.

What was measured:
[1] = test system: O. volvulus L3; assay: Onchocerca volvulus L3 molting inhibition in vitro; type: cell-based; details: O. volvulus L3, Day 6, inhibition of molting
Description: L3 stage larvae previously collected and cryopreserved in Cameroon were rapidly thawed in a 37°C water bath and washed in incomplete media comprised of a 1:1 ratio of Medium NCTC-109 and IMDM + GlutaMax-I containing 1X glutamine, penicillin, and streptomycin (all from Gibco by Life Technologies, Grand Island, NY). The number of worms was adjusted to about 10 worms per 50 μL in complete medium containing 20% heat inactivated FCS. Worms were distributed into the wells of a 96-well plate containing 50 μL of 1.5 × 10^5 normal human PBMCs. 100 μL of 2X auranofin (final concentrations of 30 μM, 10 μM, 3 μM, 1 μM and 0.3 μM) were added to each well for a final volume of 200 μL. Each concentration was tested in triplicate. Controls included 0.05% DMSO in complete medium and complete medium only with neither DMSO nor compound added. The 96-well plates were then incubated at 37°C in a 5% CO2 incubator for 6 days, then molting was assessed using an inverted microscope. Molting was determined in each well by counting the presence of fourth-stage larvae (L4) and empty casts of the L3. The percent inhibition of molting was calculated based on the number of treated larvae that were able to molt in comparison to the number of control larvae that had successfully molted. Prism 4.0 for Windows was used to calculate IC50s.

[2] = Plasma gold levels (elemental gold analysis) in Brugia infected gerbils; type: in vivo, Mongolian gerbils (Meriones unguiculatus)
Description: Animal studies were performed under IACUC approval #AN085723–02 to test the efficacy of auranofin in vivo. Male Mongolian gerbils (Meriones unguiculatus, Charles River Laboratories International, Inc., Wilmington, MA) were injected intraperitoneally (IP) with 300 B. pahangi L3 (Filariatech, Inc., Athens, GA) and treated 3 months post-infection. Auranofin was dissolved in 100% ethanol at 4 mg/mL and mixed 1:1 with PBS. Vehicle doses consisted of the same mixture of ethanol and PBS but without auranofin. Doses (up to 200 μl) were given to gerbils orally at 5 mg/kg body weight, BID weekdays and SID weekends for a total of 48 doses over 4 weeks.
Two studies (Study 1 and Study 2) were conducted using the same protocols and the same dosing schedule except that in Study 1, two gerbils from the auranofin treatment group and two gerbils from the vehicle group were treated for 14 days and were necropsied 2 hours after their last dose (interim necropsy) to determine plasma gold levels (from auranofin). The remaining gerbils in Study 1 were treated for 28 days and were necropsied 11, 14, or 16 days after the end of dosing. In Study 2, all gerbils were treated for 28 days and were necropsied 16 days after the end of dosing. For both of these in vivo studies, worms were collected from the gerbil’s peritoneal cavity, counted, sexed and examined under a dissecting microscope. For each study a two-tailed Student’s T-test assuming equal variance was conducted using Microsoft Excel to determine the statistical significance of the difference in mean worm retrieval between the auranofin treated and vehicle treated groups. Gerbil blood was collected by cardiac puncture and plasma was sent to NMS Labs, Willow Grove, PA to determine plasma gold levels (elemental gold analysis) by graphite furnace atomic absorption spectroscopy.

[3] = test system: O. ochengi microfilariae; assay: Onchocerca ochengi microfilariae motility in vitro; type: cell-based; details: Day 5
Description: O. ochengi microfilariae were obtained from the umbilical skin of infected cattle and cultured on confluent monkey kidney epithelial cells for drug testing as previously described.
Microfilariae (10–15 per well) were cultured in 96-well culture plates in duplicate under the same conditions and drug concentrations as were used for the adult O. ochengi, except that 10 μg/mL ivermectin was used as a positive control. Microfilariae viability was visually scored based on motility reduction using the same scale described above for adult male O. ochengi. Scores were recorded every 24 hours after the addition of drugs for 5 days using an inverted microscope.

[4] = test system: cysteine protease cathepsin B; set-up: method as in PMID 16789749; details: cited from earlier work
[5] = test system: adult female B. pahangi; assay: Transmission electron microscopy of treated adult female B. pahangi; type: cell-based, Brugia pahangi; details: auranofin 1 μM, 0.3 μM or 0.1 μM overnight, vs 1% DMSO
Description: Adult female B. pahangi worms were incubated with either 1 μM, 0.3 μM, or 0.1 μM auranofin, 10 μM flubendazole (as a positive control), or 1% DMSO overnight, then cut into 3 segments separating the anterior, middle and posterior sections. The middle sections were further cut into 1 mm sized pieces in fixative (2.5% glutaraldehyde and 2% paraformaldehyde in 0.1 M sodium cacodylate buffer, pH 7.3–7.4) and stored at 4°C. Middle sections were subsequently treated with 1% tannic acid for 1 hour, followed by three buffer washes before post fixation staining with 2% osmium tetroxide for 1 hour. The samples were washed three times in buffer before dehydration in an ethanol series. Worm sections were then infiltrated with propylene oxide, embedded in epon 812 resin and polymerized in a vacuum oven at 60°C overnight. Ultrathin sections were cut using an RMC MTX ultramicrotome with a Diatome diamond knife followed by post staining of the grids with saturated ethanolic uranyl acetate and Reynolds lead citrate. Samples were imaged on a FEI Tecnai 12 spirit TEM operated at 80 kV. A similar procedure was performed on adult female O. ochengi worm masses that were cultured for 7 days with 10 μM auranofin before fixation of cut pieces of the adult female mass. Untreated adult female masses cultured for 7 days and fixed by the same procedure served as the control.

[6] = test system: endogenous Brugia thioredoxin reductase; assay: Thioredoxin reductase activity of lysates of female B. malayi treated in vitro; type: biochemical, Brugia malayi; details: 5 hours in vitro, female worms, soluble lysate
Description: Thioredoxin reductase activity of worm lysates was assayed using female B. malayi treated in vitro with either 0.3 μM, 0.1 μM, or 0.03 μM auranofin or 1% DMSO. After 5 hours of treatment, worm motility was measured using the Worminator, and then worms (24 in each group) were pooled, washed three times in PBS, and lysed by douncing in a glass homogenizer in assay buffer (Abcam Thioredoxin Reductase Assay kit, ab83463) with 1 mM PMSF. The crude lysates were centrifuged at 10,000 rcf for 15 minutes at 4°C to pellet insoluble material. The total protein concentrations of soluble lysates were measured using the Bradford assay. The soluble lysates were incubated for 20 minutes in assay buffer or assay buffer with a proprietary thioredoxin reductase specific inhibitor before adding a specific substrate, DTNB (5, 5′-dithiobis (2-nitrobenzoic) acid), and measuring activity at 20 second intervals for 40 minutes using the SpectraMax Plus Microplate Reader (Molecular Devices, Sunnyvale, CA) at λ = 412 nm. Lysates were tested in duplicate. TrxR activity was calculated based on the linear amount of TNB produced per minute per mg of total protein and adjusted for background activity from enzymes other than TrxR in the lysates.

[7] = target: glutathione reductase; set-up: method as in PMID 9685351; details: higher IC50; cited from earlier work

Q: For `CC[PH](CC)(CC)[Au][S][C@@H]1O[C@H](COC(C)=O)[C@@H](OC(C)=O)[C@H](OC(C)=O)[C@H]1OC(C)=O` [auranofin, 2,3,4,6-tetra-O-acetyl-1-thio-beta-D-glucopyranosato-S (triethylphosphine) gold], which IC50 [1] is on record?
A: The IC50 was 0.3 µM.

Q: And the “mean plasma gold level” value ([2]; Study 1, 16 days after the last dose)?
A: Its value is 701 nM.

Q: What about the “mean plasma gold level” value ([2]; Study 2, 16 days after the last dose) of the same compound?
A: The value was 609 nM.

Q: And the Plasma gold levels ([2]; Study #1, 2 hours after last dose, interim necropsy after 14 days of treatment, 5 mg/kg oral, individual gerbils, 5 mg/kg)?
A: Its Plasma gold levels is 1700 µg/L and 1000 µg/L.

Q: And the Plasma gold levels ([2]; Study #1, 11 days after last dose, 28 days of treatment)?
A: The Plasma gold levels was 270 µg/L.

Q: What about the Plasma gold levels ([2]; Study #1, 14 days after last dose, 28 days of treatment) of the same compound?
A: The Plasma gold levels was 340 µg/L.

Q: What about the Plasma gold levels ([2]; Study #1, 16 days after last dose, individual gerbils, values less than 100 μg/L given as zero) of the same compound?
A: The Plasma gold levels was 170 µg/L and 190 µg/L and 160 µg/L.

Q: What about the Concentration of gold ([2]; Study #1, plasma, 2 hours after last dose, interim necropsy after 14 days of treatment, individual gerbils) of the same compound?
A: The Concentration of gold was 5080 nM and 8630 nM and 8631 nM and 5077 nM.

Q: What about the Concentration of gold ([2]; Study #1, plasma, 11 days after last dose) of the same compound?
A: The Concentration of gold was 1371 nM.

Q: And the Concentration of gold ([2]; Study #1, plasma, 14 days after last dose)?
A: The Concentration of gold was 1726 nM.

Q: What about the Concentration of gold ([2]; Study #1, plasma, 16 days after last dose, individual gerbils, values less than 508 nM given as zero) of the same compound?
A: Its Concentration of gold is 863 nM and 965 nM and 812 nM.

Q: What about the Plasma gold levels ([2]; Study #2, 16 days after last dose, individual gerbils, values less than 100 μg/L given as zero) of the same compound?
A: Its Plasma gold levels is 130 µg/L and 190 µg/L and 160 µg/L.

Q: And the Concentration of gold ([2]; Study #2, plasma, 16 days after last dose, individual gerbils, values less than 508 nM given as zero)?
A: The Concentration of gold was 660 nM and 965 nM and 812 nM.

Q: What about the “gold levels in blood” value ([2]; approximately 2 weeks after the last dose) of the same compound?
A: Its value is 0.66 µM.

Q: And the IC50 [3]?
A: Its IC50 is 3 µM.

Q: What about the IC50 [4] of the same compound?
A: The IC50 was roughly 250 µM.

Q: What about the “ultrastructure (TEM) of adult female B. pahangi” value [5] of the same compound?
A: The value was “considerable damage in the hypodermal region; also recorded: extensive damage to Wolbachia in the hypodermal area”.

Q: What about the “Thioredoxin reductase activity, percent of DMSO control” value ([6]; 0.03 μM) of the same compound?
A: Its value is 69%.

Q: What about the “Thioredoxin reductase activity, percent of DMSO control” value ([6]; 0.1 μM) of the same compound?
A: The value was 33%.

Q: What about the “Thioredoxin reductase activity, percent of DMSO control” value ([6]; 0.3 μM) of the same compound?
A: The value was 15%.

Q: And the “IC50 relative to TrxR isolated from human placenta” value [7]?
A: Its value is “about 1000 fold”.
